Positions of bridges follow the written chain, without caps; N, C: chain ends. Residues, ends and D or L forms follow the SMILES beside them. No end group written: not given here.
Tests used:
[1] = tested on: precontracted rabbit or rat aortic preparations; test: Vasorelaxant potency on precontracted aortic rings; conditions: for vasorelaxant potency in words: precontracted vascular preparations; for IC50: thoracic aortic segments precontracted with histamine or norepinephrine, read-out: IC50 (concentration producing half-maximal relaxation of the precontracted tissue)
Procedure: Synthetic ANVP compounds were compared to partially purified (gel filtration step) and purified (HPLC) native ANVP compounds (See FIGS. 3A-D) for their ability to relax histamine-contracted aortic rings. Rings were suspended in 10 ml aerated Kreb's buffer under 1.5 gm passive tension. Rings were precontracted with 5 X 10^-6 M histamine, washed and allowed to return to baseline tension, as described ([…]., supra). Increasing amounts of purified or synthetic ANVP compounds were then added in cumulative fashion. […] The relaxation effects of various ANVP compounds on precontracted rabbit or rat aortic preparations are shown in Table III. | Thoracic aortic segments were precontracted with histamine or | norepinephrine as previously described. Various doses of ANVP compounds | were then added and relaxation of the precontracted state was monitored. | Data are expressed as the concentration of each peptide required to | produce a halfmaximal relaxation of the precontracted tissue (IC50).

[2] = tested on: ANVP receptor sites on cultured bovine vascular smooth muscle cells; test: Displacement of specific [125I]rANVP(126-150) binding on cultured smooth muscle cells; conditions: for Ki: concentration of half-maximal displacement
Source text: Specific and saturable binding is a necessary component of a hormone/receptor interaction.
Various concentrations of the peptides described were examined for […]

experimental animals = test: Diuretic activity following infusion into experimental animals (FIG. 12B); type: in vivo; conditions: urinary flow rate as percentage of baseline
Source text: FIG. 12 graphically portrays a comparison of the activities of selected compounds of the present invention, in which Panel A depicts a dose response relationship comparing the vasorelaxant properties of rANVP […] and [Ala^130 ]rANVP(126-150) and Panel B portrays a comparison of the diuretic activities of the same two peptides following infusion into experimental animals. Urinary flow rates during and post infusion (periods 7-24) were compared to control (baseline) flow rates (periods 1-6) and data are expressed as the percentage of baseline control values;
In table VII, various ANVP compounds were tested over a ten-fold range of concentration. Most of the peptides induced diuresis and natriuresis with few exceptions ([D-Asp^135 ]rANVP(126-150), [D-Val^137 ] rANVP(126-150)]). […] This is perhaps best observed with the ANVP analog [Ala^130 ]rANVP(126-150). […] Thus, it appears that [Ala^130 ]rANVP(126-150), rANVP(126-147) and related peptide forms represent classes of compounds which may exert renal selectivity. Such compounds could have important therapeutic value.

[3] = tested on: rabbit thoracic aortic rings; test: Relaxation of histamine-contracted rabbit thoracic aortic rings; conditions: tested as described for the expressed material
Procedure: Synthetic ANVP compounds were compared to partially purified (gel filtration step) and purified (HPLC) native ANVP compounds (See FIGS. 3A-D) for their ability to relax histamine-contracted aortic rings. Rings were suspended in 10 ml aerated Kreb's buffer under 1.5 gm passive tension. Rings were precontracted with 5 X 10^-6 M histamine, washed and allowed to return to baseline tension, as described (Kleinert, H. D., supra). Increasing amounts of purified or synthetic ANVP compounds were then added in cumulative fashion.
The dried methanol soluble and ammonium acetate eluted material was resolubilized in 0.5 ml of distilled H2 O and tested for biological activity using the precontracted rabbit thoracic aortic ring model described in Kleinert, et al., Hypertension 6:Suppl. 1:143-146 (1984). Equal volumes of material reconstituted from crude lyophilized media, methanol soluble protein or protein eluted from SP-Sephadex® with 1.0 M ammonium acetate were compared using aortic rings precontracted with 5 μM histamine. Material synthesized by yeast cultures whose plasmids encoded proANVP (amino acids 26-152) (YEp-α-NF-9) and proANVP (amino acids 121-152) (YEp-α-NF-5), as well as the corresponding inverse orientations (YEp-α-NF-12 and YEp-α-NF-7, respectively), were compared.
A fraction of the crude bacteria extract was subsequently boiled for 5 minutes and lowered to pH 2.5 for 1 hour. […]

intact rats = test: Natriuretic and diuretic effects in intact rats (bolus injection); type: in vivo, rat
Procedure: Synthetic ANVP compounds […] hANVP(127-151) were also found to be natriuretic in the intact rat. These compounds were administered as a bolus injection to Inactin anesthetized rats (100 mg/kg, average weight 399 g) which were maintained on a constant infusion of normal saline at 2.2 ml/hr. […] Data are expressed as mean±SE.

anesthetized dogs = test: Hemodynamic, renal and metabolic effects in anesthetized dogs; type: in vivo, dog
Procedure: Renal and hemodynamic effects have also been measured in anesthetized dogs receiving a constant infusion of the compound rANVP(126-149) (1 μg/kg bolus, followed by 0.1 μg/kg/min for 1 hour). Effects were immediately detected on blood pressure, GFR and urine flow rate and electrolyte excretion and were sustained throughout the infusion. The "experimental" data presented for these parameters in […] are the average values obtained during the infusion. Mean arterial pressure (MAP) fell consistently by 10-15% while GFR rose by 25-35%, in association with a sustained diuresis and natriuresis (Table VIII). The parameters returned to control (i.e. pre-infusion) levels following termination of the infusion.

isolated rat kidney = test: Renal function in the isolated perfused rat kidney
[4] = experimental: average during infusion
[5] = recovery, after termination of the infusion
[6] = experimental peak value, 0.1 to 1.0 μg added to perfusate, mean ± SE of 4 kidneys
[7] = dose 0.1 μg, experimental period E, mean of 3-8 experiments

## CC[C@H](C)[C@@H]1NC(=O)[C@H](CCCNC(=N)N)NC(=O)[C@H](CC(=O)O)NC(=O)[C@H]([C@@H](C)CC)NC(=O)[C@H](CCCNC(=N)N)NC(=O)CNC(=O)CNC(=O)[C@H](C)NC(=O)[C@@H](NC(=O)[C@H](CO)NC(=O)[C@H](CO)NC(=O)[C@@H](N)CCCNC(=N)N)CSSC[C@@H](C(=O)N[C@@H](CC(N)=O)C(=O)N[C@@H](CO)C(=O)N[C@@H](Cc2ccccc2)C(=O)N[C@@H](CCCNC(=N)N)C(=O)N[C@@H](Cc2ccc(O)cc2)C(=O)O)NC(=O)CNC(=O)[C@H](CC(C)C)NC(=O)CNC(=O)[C@H](CO)NC(=O)[C@H](CCC(N)=O)NC(=O)[C@H](C)NC(=O)CNC1=O [[Ala^130]rANVP(126-150)]
[1]
  vasorelaxant potency in words: substantially less potent than rANVP(126-150)
  IC50: > 100 nM
[1]; listed as [Ala^130 ] rANVP
  vasorelaxant potency in words: essentially inactive
[2]
  binding activity in smooth muscle cells relative to rANVP(126-150), in words: comparable binding activity to rANVP(126-150)
[2]; Series B smooth muscle cells
  Ki: 11.1 nM
Experimental animals
  diuretic effects in vivo compared with rANVP(126-150) (FIG. 12b): nearly equipotent

## hANVP(126-151): human product produced in CHO cells, as printed; probably prohANVP(26-151) (RRSSCFGGRMDRIGAQSGLGCNSFRY; ends and bridges not checked; cysteine pairing not given here; UniProt P01160 126-151, looked up, fragment)
[3]
  biological (vasodilatory) activity of expression products, in words: exhibited biological activity similar to that observed above

## CC[C@H](C)[C@@H]1NC(=O)[C@H](CCCNC(=N)N)NC(=O)[C@H](CC(=O)O)NC(=O)[C@H]([C@@H](C)CC)NC(=O)[C@H](CCCNC(=N)N)NC(=O)CNC(=O)CNC(=O)[C@H](Cc2ccccc2)NC(=O)[C@@H](NC(=O)[C@H](CO)NC(=O)[C@H](CO)NC(=O)[C@@H](N)CCCNC(=N)N)CSSC[C@@H](C(=O)N[C@@H](CC(N)=O)C(=O)N[C@@H](CO)C(=O)N[C@@H](Cc2ccccc2)C(=O)N[C@@H](CCCNC(=N)N)C(=O)O)NC(=O)CNC(=O)[C@H](CC(C)C)NC(=O)CNC(=O)[C@H](CO)NC(=O)[C@H](CCC(N)=O)NC(=O)[C@H](C)NC(=O)CNC1=O [rANVP(126-149)] (H-RSSCFGGRIDRIGAQSGLGCNSFR-OH; disulfide 4-20)
[2]; Series B smooth muscle cells
  Ki: 0.89 nM
Intact rats; bolus injection, Inactin anesthetized rats
  natriuretic in the intact rat, in words: natriuretic
Anesthetized dogs; during infusion
  fall of mean arterial pressure (MAP): 10-15%
  rise of GFR: 25-35%
Anesthetized dogs; [4]
  .V (urine flow rate): 1.06 ± 0.14 mL/min
  FEH2O (fractional water excretion): 3.4 ± 0.3%
  FEK: 34 ± 6%
  FENa: 4.1 ± 0.5%
  GFR: 32.3 ± 4.1 mL/min
  PA (plasma aldosterone): 5.4 ± 0.9 ng/100 ml
  PRA (plasma renin activity): 8.3 ± 1.8 ng/mL/h
  UK .V: 36 ± 6 μEq/min
  UNa .V: 187 ± 35 μEq/min
Anesthetized dogs; experimental: average during infusion, 1 μg/kg bolus then 0.1 μg/kg/min for 1 hour
  MAP (mean arterial pressure): 122 ± 4 mm Hg
Anesthetized dogs; [5]
  .V (urine flow rate): 0.37 ± 0.05 mL/min
  FEH2O (fractional water excretion): 1.5 ± 0.2%
  FEK: 21 ± 4%
  FENa: 1.9 ± 0.4%
  GFR: 25.4 ± 3.3 mL/min
  MAP (mean arterial pressure): 136 ± 4 mm Hg
  PA (plasma aldosterone): 7.0 ± 1.3 ng/100 ml
  PRA (plasma renin activity): 14 ± 2.5 ng/mL/h
  UK .V: 21 ± 4 μEq/min
  UNa .V: 68 ± 14 μEq/min
Isolated rat kidney; [6]
  .V (urine flow rate): 97.6 ± 19.4 µL/min
  FEK (fractional potassium excretion): 52.1 ± 6.2%
  FENa (fractional sodium excretion): 6.6 ± 2.0%
  FF (filtration fraction): 0.021 ± 0.001
  FLNa (filtered load of sodium): 90.1 ± 5.2 μEq/min
  GFR (glomerular filtration rate): 0.63 ± 0.03 mL/min
  RVR (renal vascular resistance): 3.9 ± 0.3 mmHg/ml/min
  TNa (tubular reabsorption of sodium): 84.2 ± 4.8 μEq/min
  UK .V (urinary potassium excretion rate): 1.46 ± 0.16 μEq/min
  UNa.V (urinary sodium excretion rate): 6.01 ± 1.99 μEq/min

## CC[C@H](C)[C@@H]1NC(=O)[C@H](CCCNC(=N)N)NC(=O)[C@H](CC(=O)O)NC(=O)[C@H]([C@@H](C)CC)NC(=O)[C@H](CCCNC(=N)N)NC(=O)CNC(=O)CNC(=O)[C@H](Cc2ccccc2)NC(=O)[C@@H](NC(=O)[C@H](CO)NC(=O)[C@H](CO)NC(=O)[C@@H](N)CCCNC(=N)N)CSSC[C@@H](C(=O)N[C@@H](CC(N)=O)C(=O)N[C@@H](CO)C(=O)N[C@@H](Cc2ccccc2)C(=O)N[C@@H](CCCNC(=N)N)C(=O)N[C@@H](Cc2ccc(O)cc2)C(=O)O)NC(=O)CNC(=O)[C@H](CC(C)C)NC(=O)[C@@H](C)NC(=O)[C@H](CO)NC(=O)[C@H](CCC(N)=O)NC(=O)[C@H](C)NC(=O)CNC1=O [[D-Ala^142]rANVP(126-150), H-Arg-Ser-Ser-Cys-Phe-Gly-Gly-Arg-Ile-Asp-Arg-Ile-Gly-Ala-gln-Ser-[D-Ala]-Leu-Gly-Cys-Asn-Ser-Phe-Arg-Tyr-OH]
[1]
  vasorelaxant potency in words: most potent
  IC50: 0.62 nM
[2]; Series A smooth muscle cells
  Ki: 0.6 nM
Intact rats; dose 3670 pmol/kg
  Peak Na+ Excr.: 9.1 ± 0.9 µmol/min
  Peak Urine Vol.: 66.3 ± 3 µL/min
Isolated rat kidney; [7]
  .V (urine flow rate): 58.5 µL/min
  GFR: 0.75 mL/min
  UNa.V (urinary sodium excretion rate): 2.50 μEq/min

## CC[C@H](C)[C@@H]1NC(=O)[C@H](CCCNC(=N)N)NC(=O)[C@H](CC(=O)O)NC(=O)[C@H](CCSC)NC(=O)[C@H](CCCNC(=N)N)NC(=O)CNC(=O)CNC(=O)[C@H](Cc2ccccc2)NC(=O)[C@@H](NC(=O)[C@H](CO)NC(=O)[C@@H](N)CO)CSSC[C@@H](C(=O)N[C@@H](CC(N)=O)C(=O)N[C@@H](CO)C(=O)N[C@@H](Cc2ccccc2)C(=O)N[C@@H](CCCNC(=N)N)C(=O)N[C@@H](Cc2ccc(O)cc2)C(=O)O)NC(=O)CNC(=O)[C@H](CC(C)C)NC(=O)CNC(=O)[C@H](CO)NC(=O)[C@H](CCC(N)=O)NC(=O)[C@H](C)NC(=O)CNC1=O [hANVP(128-151)] (H-SSCFGGRMDRIGAQSGLGCNSFRY-OH; disulfide 3-19)
[3]
  biological (vasodilatory) activity of expression products, in words: displayed the full range of biological activities
[2]; Series A smooth muscle cells
  Ki: 7 nM

Reference: patent publication US5212286A, “Atrial Natriuretic/vasodilator peptide compounds” (Scios Nova Inc., priority 1986, dated 1993)
